This passage reports Kd results from publication PMC3824017 (The Journal of Cell Biology, 2013).

In experiment [1] the target is T1, erlin-2 (native erlin-1/2 complex) (Mus musculus, UniProt Q8BFZ9+Q91X78).
T1 sequence (Q8BFZ9 1-340): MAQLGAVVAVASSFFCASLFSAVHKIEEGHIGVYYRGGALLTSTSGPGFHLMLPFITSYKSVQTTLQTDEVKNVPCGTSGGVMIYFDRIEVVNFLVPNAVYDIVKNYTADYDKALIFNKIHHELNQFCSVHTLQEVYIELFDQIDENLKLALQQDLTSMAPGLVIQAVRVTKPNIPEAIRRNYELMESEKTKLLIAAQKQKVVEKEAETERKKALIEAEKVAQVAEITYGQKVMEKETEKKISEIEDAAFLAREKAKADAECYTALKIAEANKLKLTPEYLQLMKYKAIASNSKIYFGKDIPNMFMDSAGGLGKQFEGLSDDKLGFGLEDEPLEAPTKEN
T1 sequence (Q91X78 1-348): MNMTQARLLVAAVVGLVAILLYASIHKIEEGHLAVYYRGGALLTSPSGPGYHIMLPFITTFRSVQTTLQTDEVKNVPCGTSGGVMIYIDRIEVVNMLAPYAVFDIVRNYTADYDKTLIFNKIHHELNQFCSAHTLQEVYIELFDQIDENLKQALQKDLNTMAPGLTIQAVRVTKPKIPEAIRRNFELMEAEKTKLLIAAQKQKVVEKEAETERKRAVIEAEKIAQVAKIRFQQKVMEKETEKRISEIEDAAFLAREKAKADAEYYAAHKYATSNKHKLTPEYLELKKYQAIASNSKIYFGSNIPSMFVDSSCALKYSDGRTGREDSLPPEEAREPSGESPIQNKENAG
Type of experiment: binding.

For experiment [2], the target named is T2, erlin-1 (Homo sapiens, UniProt O75477).
T2 sequence (O75477 1-348): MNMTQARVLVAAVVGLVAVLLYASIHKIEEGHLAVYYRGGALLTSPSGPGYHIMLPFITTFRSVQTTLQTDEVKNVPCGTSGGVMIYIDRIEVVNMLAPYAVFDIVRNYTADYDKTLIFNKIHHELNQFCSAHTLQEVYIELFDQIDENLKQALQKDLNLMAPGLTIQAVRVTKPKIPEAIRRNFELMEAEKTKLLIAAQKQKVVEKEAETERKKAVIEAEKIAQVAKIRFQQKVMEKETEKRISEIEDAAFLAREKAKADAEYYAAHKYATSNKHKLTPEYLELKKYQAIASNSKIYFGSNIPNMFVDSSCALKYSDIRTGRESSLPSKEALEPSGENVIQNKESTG
Type of experiment: binding.

By Kd is commonly meant the constant that tells how readily two partners part at equilibrium. Read a high Kd as a looser complex.

With `CC(C)CCC[C@@H](C)[C@H]1CC[C@H]2[C@@H]3CC=C4C[C@@H](O)CC[C@]4(C)[C@H]3CC[C@]12C` [cholesterol], the results for the Kd in experiment [1] and in experiment [2] were 13.4 µM and 13.2 µM, respectively.
